Experimental data: US10975063B2, “Compound, and production method thereof, and methods of treatment using the compound” (ABIVAX, priority 2009, dated 2021)

Assays:
[1] = tested on: HIV-1; experiment: Inhibition of HIV-1 production (p24 antigen) in infected peripheral blood mononuclear cells (PBMCs); format: cell-based, HIV-1 (AdaM) in PBMCs of healthy donors; details: for IC50: Human immunodeficiency virus 1, PBMC, p24 production in HIV infected PBMCs, dose response curves; for Inhibition of p24 production in HIV infected PBMCs from different donors: tested molecules at 10 μM, p24 after 3 and 6 days of infection, number of donors with inhibition out of donors tested
Experimental: Within this framework, the peripheral blood mononuclear cells (PBMCs) of healthy donors are isolated by centrifugation on a FICOLL gradient. The cells are then cultivated to a density of 2.5×10^6 cells/ml with RPMI medium supplemented with 1% inactivated human AB serum, then incubated at 37° C., 5% CO2 for an additional hour. The peripheral blood mononuclear cells are then recovered and cultivated for two days in RPMI medium supplemented with 10% fetal calf serum.
A standard experiment using 96 plates to test 30 molecules in triplicates including positive and negative controls, is performed as follows:
50 10^6 Ficoll purified PBMCs (10% DMSO 90% FCS) are washed with RPMI 10% FCS and resuspended in 25 ml of RPMI 10% FCS, glutamax containing 1000 U/ml of IL2 and 5 μg/ml PHA. The cells are then incubated for 3 days at 37° C. before to be washed with 50 ml PBS then with 50 ml RPMI 10% FCS. The cells are resuspended in 100 μl of RPMI 10% FCS containing 100 U/ml IL2 and seeded in 96 wells (1.5 10^5 cells/well). Viral infection is performed with 1 ng of AdaM/well. 100 μl of tested molecules at concentration of 10 μM are added to each well. Virus production is determined by p24 antigen immunosorbent assays after 3 and 6 days of infection (Kit Innogenetics). Typically PBMCs are prepared from several healthy donors (around 11 different donors). Dose response curves were then established with selected compounds to determine IC50.

[2] = tested on: LMNA aberrant splicing (MutLMNA-luc cell line); experiment: Luciferase assay for repression of LMNA aberrant splicing in stable 293 MutLMNA-luc cell line (293FLP LMNA LUC cells #8); format: cell-based; details: 48 hours, compared to control untreated MutLMNA-luc cell line, read-out: Increase of luciferase activity
Excerpt: Advantage has been taken of the luciferase system. The luciferase assay is an extremely sensitive and rapid assay. Linear results are seen over at least eight orders of magnitude of enzyme concentration. Moreover, the luciferase assay is well suited for high-throughput applications. To conduct a Mid-throughput screening (MTS) for compounds repressing LMNA aberrant splicing, we have constructed a plasmid in which exon 11, intron 11 and part of exon 12 of LMNA gene were fused with luciferase cDNA (FIG. 2). Both wild type (WtLMNA-luc)(SEQ ID NO: 1) and mutant (MutLMNA-luc)(SEQ ID NO: 2) substrate harbouring exon 11 mutation have been constructed. In these constructs we have generated a single initiation codon in exon 11 such as correct splicing will lead to luciferase expression, while aberrant splicing will skip the initiation codon and thereby prevent luciferase expression. After transfection in HeLa cells, Luciferase assays (FIG. 2B) and RT-PCR (FIG. 2C) indicate that WtLMNA-luc produces predominantly wild type splicing and large amount of luciferase activity, whereas MutLMNA-luc recapitulate the aberrant splicing profile with reduced luciferase expression (FIGS. 2 B and C, compare Wt and Mut). In order to use this system in MTS, we have generated a stable 293 cell lines containing a single integrated copy of luciferase reporter containing LMNA mutation (MutLMNA-luc cell line) using the flp system from INVITROGEN. This system allows us to perform a MTS for compounds able to enhance luciferase activity.
LMNA sequences (1278 bp of exon 11, intron 11 and 46 bp of […]) were PCR-amplified from either control or patient's cells genomic DNA with specific primer PCR fragments were purified with Concert Rapid PCR purification system (Invitrogen) and subcloned at the BamHI and EcoRI restriction sites of the pSppβm3 S1 plasmid containing the βGlobin cassette (Labourier et al., 1999—Recognition of exonic splicing enhancer sequences by the Drosophila splicing repressor RSF1. Nucleic Acids Res. 27, 2377-2386) to give the βGlo3S1LMNAwt and βGlo3S1LMNAmut constructs. The chimeric (3Glo-LMNA sequences were then inserted into the pcDNA3.1D/V5-His-TOPO vector (Invitrogen) to be used in transfection and in vitro splicing experiments. A single initiation codon ATG was kept in exon 11 of LMNA and LMNA sequences described above were fused at their 3′ end to Fyrefly luciferase cDNA (LMNAlucWT) in order that removal of intron 11 generates a transcript that encode a fusion protein harbouring luciferase activity, whereas usage of the cryptic splice site of mutated exon 11 (LMNAlucMut) will remove the initiation codon preventing luciferase expression. Both sequences were cloned in pcDNA3 Flp-In vector (Invitrogen).
A stable 293 cell line containing a single copy of LMNAlucMut minigene was obtained using the Flp-In system from (Invitrogen) according to manufacture procedure. Several clones were obtained and only one clone was used to screen the whole chemical library (293FLP LMNA LUC cells #8).
In a 96 Well Plate sterile, V-shape one put […] of drug compounds at 50 mM and then add 49.5 μl of 10% DMSO.
One pipets […] of drug at 500 μM and adds 200 μL of DMEM+Hygromycin B. At this stage the concentration of drug compound is 10 μM. One shares out 100 μl in a 96 Well Microplate sterile, flat bottom (further called luciferase plate) and 50 μl in other one (further called toxicity plate).
One washes 293FLP LMNA LUC cells once with D-PBS then adds 1 ml trypsin EDTA. Incubation at 37° C. for 2-3 minutes is proceeded. Then one adds 9 ml DMEM (with 10% FCS, P/S).
Cell concentration is brought at 10^5 cells per ml with DMEM+Hygromycin B to have 10^4 cells per 100 μl.
100 μl of suspension cells is added (at 10^4 cells per 100 μl) so final concentration of compounds is […].
Medium of the wells is gently removed then washed once by adding slowly 150 μl of D-PBS 1×. D-PBS is removed. 40 μl of PLB 1× is added and incubated at RT for 30 minutes. […]

Compound	IC50 [1] [nM]	Inhibition of p24 production in HIV infected PBMCs from different donors [1]	fold induction at 5 µM [2]
Cc1ccnc(Nc2ccc3cccc(Cl)c3n2)c1 [Compound 6, (8-Chloro-quinolin-2-yl)-(4-methyl-pyridin-2-yl)-amine]	0.1	–	–
Fc1ccc(Nc2ccc3cccc(Cl)c3n2)nc1 [Compound 43, 8-chloro-N-(5-fluoropyridin-2-yl)quinolin-2-amine]	0.1	8 out of 10 donnors	–
Cc1cccc(Nc2nc3ccccc3cc2C)n1 [Compound 46, 3-methyl-N-(6-methylpyridin-2-yl)quinolin-2-amine]	–	4 out of 4 donnors	–
CCc1cccc(Nc2ccc3cccc(Cl)c3n2)n1 [Compound 50, 8-chloro-N-(6-ethylpyridin-2-yl)quinolin-2-amine]	–	4 out of 4 donnors	–
Cc1ccnc(Nc2ccc3c([N+](=O)[O-])cccc3n2)c1 [Compound 64, N-(4-methylpyridin-2-yl)-5-nitroquinolin-2-amine]	–	5 out of 5 donnors	–
FC(F)(F)c1ccnc(Nc2ccc3cccc(Cl)c3n2)c1 [Compound 68, 8-chloro-N-[4-(trifluoromethyl)pyridin-2-yl]quinolin-2-amine]	–	4 out of 4 donnors	–
Oc1cccnc1Nc1ccc2cccc(Cl)c2n1 [Compound 69, 2-[(8-chloroquinolin-2-yl)amino]pyridin-3-ol]	–	4 out of 4 donnors	–
FC(F)(F)c1cccc(Nc2ccc3cccc(Cl)c3n2)n1 [Compound 70, 8-chloro-N-[6-(trifluoromethyl)pyridin-2-yl]quinolin-2-amine]	–	4 out of 4 donnors	–
Fc1ccc(Nc2ccc3cc(Cl)ccc3n2)nc1 [Compound 71, 6-chloro-N-(5-fluoropyridin-2-yl)quinolin-2-amine]	–	4 out of 4 donnors	–
CCc1cccc(Nc2nc3ccccc3cc2C)n1 [Compound 72, N-(6-ethylpyridin-2-yl)-3-methylquinolin-2-amine]	–	4 out of 4 donnors	–
Cc1cc2ccccc2nc1Nc1ccc(F)cn1 [Compound 73, N-(5-fluoropyridin-2-yl)-3-methylquinolin-2-amine]	–	4 out of 4 donnors	–
Cc1cc2ccccc2nc1Nc1ccc(C(F)(F)F)cn1 [Compound 74, 3-methyl-N-[5-(trifluoromethyl)pyridin-2-yl]quinolin-2-amine]	–	4 out of 4 donnors	–
CN(C)c1ccc(Nc2ccc3cccc(Cl)c3n2)cc1 [Compound 75, 4-N-(8-chloroquinolin-2-yl)-1-N,1-N-dimethylbenzene-1,4-diamine]	–	6 out of 7 donnors	–
COc1ccc(Nc2ccc3cccc(Cl)c3n2)cc1 [Compound 77, 8-chloro-N-(4-methoxyphenyl)quinolin-2-amine]	0.05	11 out of 13 donnors	–
Cc1cc(Nc2ccc(OC(F)(F)F)cc2)nc2ccccc12 [Compound 78, 4-methyl-N-[4-(trifluoromethoxy)phenyl]quinolin-2-amine]	–	7 out of 8 donnors	–
COc1ccc(Nc2nc3ccccc3cc2C)cc1 [Compound 79, N-(4-methoxyphenyl)-3-methylquinolin-2-amine]	–	7 out of 8 donnors	–
Cc1cc2ccccc2nc1Nc1ccc(OC(F)(F)F)cc1 [Compound 80, 3-methyl-N-[4-(trifluoromethoxy)phenyl]quinolin-2-amine]	1	7 out of 8 donnors	–
Cc1cc2ccccc2nc1Nc1ccc(N(C)C)cc1 [Compound 81, 1-N,1-N-dimethyl-4-N-(3-methylquinolin-2-yl)benzene-1,4-diamine]	–	4 out of 4 donnors	–
FC(F)(F)Oc1cccc(Nc2ccc3cccc(Cl)c3n2)c1 [Compound 87, 8-chloro-N-[3-(trifluoromethoxy)phenyl]quinolin-2-amine]	–	4 out of 4 donnors	–
Fc1cccc(Nc2ccc3cccc(Cl)c3n2)c1 [Compound 88, 8-chloro-N-(3-fluorophenyl)quinolin-2-amine]	–	4 out of 4 donnors	–
FC(F)(F)Oc1ccc(Nc2ccc3cccc(Cl)c3n2)cc1 [Compound 90, 8-chloro-N-[4-(trifluoromethoxy)phenyl]quinolin-2-amine]	0.1	8 out of 10 donnors	–
Cc1cc2ccccc2nc1Nc1cccc(OC(F)(F)F)c1 [Compound 92, 3-methyl-N-[3-(trifluoromethoxy)phenyl]quinolin-2-amine]	–	3 out of 5 donnors	–
FC(F)(F)Oc1ccc(Nc2ccc3cc(Cl)ccc3n2)cc1 [Compound 96, 6-chloro-N-(4-(trifluoromethoxy)phenyl)quinolin-2-amine]	–	5 out of 6 donnors	–
COc1ccnc2cc(Nc3ccccn3)ccc12 [Compound 145, 4-methoxy-N-(pyridin-2-yl)quinolin-7-amine]	–	–	3.87
COc1ccnc2cc(Nc3cc(C)ccn3)ccc12 [Compound 146, 4-methoxy-N-(4-methylpyridin-2-yl)quinolin-7-amine]	–	–	4.18
Cc1ccnc(Nc2ccc3c(N(C)C)ccnc3c2)c1 [Compound 147, 4-N,4-N-dimethyl-7-N-(4-methylpyridin-2-yl)quinoline-4,7-diamine]	–	–	2.94
